Measured values: patent US20250002472A1, “PYRIDYL-CONTAINING COMPOUND” (CHIA TAI TIANQING PHARMACEUTICAL GROUP CO., LTD., priority 2021, published 2025)

Columns and labels:
[1] = In vitro liver microsomal stability, human; format: in vitro ADME; settings: human liver microsomes 0.5 mg/mL, NADPH, 37° C.
Protocol: (§1) Liver microsome incubation samples were prepared by mixing a PBS buffer (pH=7.4), a liver microsome solution (0.5 mg/mL), a test compound, and an NADPH+MgCl2 solution, and incubated at 37° C. and 300 rpm for 1 h. Zero-hour samples were prepared by mixing a PBS buffer (pH=7.4), a liver microsome solution (0.5 mg/mL), and a test compound. An acetonitrile solution containing an internal standard was added to the samples, and supernatants were prepared by protein precipitation, diluted, and then assayed by LC/MS/MS.

[2] = In vitro liver microsomal stability, mouse; format: in vitro ADME; settings: mouse liver microsomes 0.5 mg/mL, NADPH, 37° C.
Protocol: as §1

Mouse pharmacokinetics = format: in vivo; settings: ICR, plasma, po, 3 mg/kg, mice, intragastric 3 mpk vs intravenous 1 mpk, read-out: Absolute bioavailability F (%)
Protocol: ICR mice weighing 18-22 g were randomized into groups of 9 mice per group after 3-5 days of acclimatization and then administered intragastrically at a dose of 3 mg/kg.
Plasma samples to be tested were prepared by taking blood from the orbit at time points of 15 min, 30 min, 1 h, 2 h, 4 h, 6 h, 8 h, 10 h, and 24 h.
20 μL of each plasma sample to be tested and a standard curve sample were taken, and an acetonitrile solution containing an internal standard was added. A supernatant was obtained by protein precipitation, diluted, and then assayed by LC/MS/MS.
Pharmacokinetic parameters were fitted using a non-compartmental model.

[3] = tested on: OCI-LY10 human diffuse large B-cell lymphoma NOD-SCID mouse subcutaneous xenograft tumor; experiment: Efficacy evaluation in OCI-LY10 NOD-SCID mouse subcutaneous xenograft tumor model; format: in vivo, NOD-SCID mice
Excerpt: Efficacy evaluation in OCI-LY10 human diffuse large B-cell lymphoma NOD-SCID mouse subcutaneous xenograft tumor model
(1) SPF female NOD-SCID mice (source: Jiangsu Huachuang Xinnuo Pharmaceutical Technology Co., Ltd.) were inoculated subcutaneously at the right side armpit with OCI-LY10 human diffuse large B-cell lymphoma cells at 1×10^7 cells/mouse. When the mean tumor volume reached about 200 mm^3, the animals were divided into a control group (vehicle control group) and treatment groups (compound groups).
The administration dose included 1 mg/kg, 2 mg/kg, and 4 mg/kg, and the administration frequency was once daily. The day of grouping was defined as day 0, and intragastric administration was started on day 0 for 21 consecutive days.
Alternatively, the administration dose was 4 mg/kg, and the administration frequency was 5 times per week. The day of grouping was defined as day 0, and intragastric administration was started on day 0 five times per week for two consecutive weeks.
The tumor volume was measured once every 3 days, and meanwhile, the mice were weighed and the data were recorded; the general behavior of the mice was observed and recorded every day. After the experiment was completed, the tumors were removed, weighed, and photographed.
The detection index and the calculation formula are as follows:
Tumor volume TV (mm^3)=½×(a×b^2), wherein a is the long diameter of the tumor, and b is the short diameter of the tumor; • Relative tumor volume RTV=TVt/TV0, wherein TV0 is the tumor volume on day 0, and TVt is the tumor volume at each measurement; • Relative tumor proliferation rate T/C (%)=(TRTV/CRTV)×100%, wherein TRTV is RTV of the treatment group, and CRTV is RTV of the vehicle control group; • Tumor growth inhibition rate TGI (%)=(1−TW/TW0)×100%; wherein TW is the tumor weight of the treatment group, and TW0 is the tumor weight of the vehicle control group; • Weight change rate WCR (%)=(Wtt−Wt0)/Wt0×100%, wherein Wt0 is the body weight of the mouse on day 0, and Wtt is the body weight of the mouse at each measurement.

SMILES	Human liver microsome Residuals at 60 min (%) [1] [%]	Mouse liver microsome Residuals at 60 min (%) [2] [%]	further results
NC(=O)/C(=C/n1cnc(-c2cc(C3CC3)nc(C(F)(F)F)c2)n1)c1ccc(F)nc1 [Compound 39]	106.91	89.18	
NC(=O)/C(=C/n1cnc(-c2cc(C3CC3)nc(C(F)(F)F)c2)n1)c1cncc(F)c1 [Compound 27]	102.54	94.24	
CC(F)(F)CNc1ncc(/C(=C\n2cnc(-c3cc(C4CC4)nc(C(F)(F)F)c3)n2)C(N)=O)cn1 [Compound 15]			bioavailability (Mouse pharmacokinetics): 94.8%
NC(=O)/C(=C/n1cnc(-c2cc(C3CC3)nc(C(F)(F)F)c2)n1)c1cnc(NCC(F)(F)F)nc1 [Compound 16]	88.75	90.60	
NC(=O)/C(=C/n1cnc(-c2cc(C(F)(F)F)nc(C(F)(F)F)c2)n1)c1cnc(NCC(F)F)nc1 [Compound 2]			bioavailability (Mouse pharmacokinetics): 104%
NC(=O)/C(=C/n1cnc(-c2cc(C3CC3)nc(C(F)(F)F)c2)n1)c1cnc2ccccc2c1 [Compound 26]	96.64	90.27	
NC(=O)/C(=C/n1cnc(-c2cc(C3CC3)nc(C(F)(F)F)c2)n1)c1cncnc1 [Compound 13]	93.23	91.15	
NC(=O)/C(=C/n1cnc(-c2cc(C(F)(F)F)nc(C(F)(F)F)c2)n1)c1cnc2ccccc2c1 [Compound 11]			Weight change rate (%) (mean ± SD) ([3]; Table 5, 4 mg/kg intragastric, Day 18 of assay): 0.6 ± 8.1%
Cc1ccc(/C(=C\n2cnc(-c3cc(C(F)(F)F)nc(C(F)(F)F)c3)n2)C(N)=O)cn1 [Compound 21]			bioavailability (Mouse pharmacokinetics): 97.3%; Weight change rate (%) (mean ± SD) ([3]; Table 4, 2 mg/kg intragastric, Day 21 of assay): −2.0 ± 6.5%
NC(=O)/C(=C/n1cnc(-c2cc(C(F)(F)F)nc(C(F)(F)F)c2)n1)c1cnc2cccnc2c1 [Compound 25]			Weight change rate (%) (mean ± SD) ([3]; Table 4, 4 mg/kg intragastric, Day 21 of assay): 1.7 ± 5.3%
N#Cc1cncc(/C(=C\n2cnc(-c3cc(C4CC4)nc(C(F)(F)F)c3)n2)C(N)=O)c1 [Compound 30]	98.75	89.94	
NC(=O)/C(=C/n1cnc(-c2cc(C3CC3)nc(C(F)(F)F)c2)n1)c1cnc(NCC(F)F)nc1 [Compound 14]	80.48	83.14	
C[C@@H](Nc1ncc(/C(=C\n2cnc(-c3cc(C(F)(F)F)nc(C(F)(F)F)c3)n2)C(N)=O)cn1)C(F)(F)F [Compound 5]	97.64	99.03	
CC(F)(F)CNc1ncc(/C(=C\n2cnc(-c3cc(C(F)(F)F)nc(C(F)(F)F)c3)n2)C(N)=O)cn1 [Compound 3]			bioavailability (Mouse pharmacokinetics): 114%
NC(=O)/C(=C/n1cnc(-c2cc(C3CC3)nc(C(F)(F)F)c2)n1)c1cccnc1F [Compound 32]	100.32	95.08	
NC(=O)/C(=C/n1cnc(-c2cc(C(F)(F)F)nc(C(F)(F)F)c2)n1)c1cnc(NCC(F)(F)F)nc1 [Compound 4]	100.33	93.27	
C[C@@H](Nc1ncc(/C(=C\n2cnc(-c3cc(C4CC4)nc(C(F)(F)F)c3)n2)C(N)=O)cn1)C(F)(F)F [Compound 17]	93.92	95.11	
COc1ccc(/C(=C\n2cnc(-c3cc(C4CC4)nc(C(F)(F)F)c3)n2)C(N)=O)cn1 [Compound 34]	101.21	87.79	
N#Cc1cncc(/C(=C\n2cnc(-c3cc(C(F)(F)F)nc(C(F)(F)F)c3)n2)C(N)=O)c1 [Compound 10]	95.75	93.99	
NC(=O)/C(=C/n1cnc(-c2cc(C(F)(F)F)nc(C(F)(F)F)c2)n1)c1cncc(F)c1 [Compound 8]	101.7	98.98	
NC(=O)/C(=C/n1cnc(-c2cc(C3CC3)nc(C(F)(F)F)c2)n1)c1cnc2cccnc2c1 [Compound 33]	104.79	98.21	
Cc1ccc(/C(=C\n2cnc(-c3cc(C4CC4)nc(C(F)(F)F)c3)n2)C(N)=O)cn1 [Compound 38]			bioavailability (Mouse pharmacokinetics): 112%
